Assay results as given in patent publication US20040259079A1, “Substantially complete ribozyme libraries” (priority 1998, published 2004).
Read-outs that look alike come from different tables or passages of the source.

Experiments:
Assay type in all cases: cell-based
[1] = test system: HIV; assay: HIV challenge of stable Molt4/8 cell lines, P24 production (SAVA); conditions: for % inhibition of HIV replication: Table 19, U5 ribozyme from RNA polymerase III promoters, P24 at 7 days, vs ALNL-6 control
Experimental: Promoter efficacy was measured by using them to express a ribozyme against the US region of HIV and measuring the resulting anti-HIV effect for each promoter. […] The HIV protease inhibitor, indinavir, was included in these experiments as a positive control at 10 and 100 nM concentrations.

[2] = test system: A549 and HeLa cells; assay: Puromycin selection of transiently transfected cells; conditions: cells receiving puromycin resistance genes (pPur); 600ng/ml puromycin
Experimental: Drug selection is typically used to obtain cells which stably express the drug resistance gene; however, we have found conditions under which cells transfected with puromycin-expressing vectors can survive for several days in the presence of puromycin, even when not stably transfected or transduced. During the same time period, untransfected cells are rapidly killed by the drug. Plasmids encoding puromycin resistance genes (pPur) were transfected into A549 and HeLa cells, and 600ng/ml puromycin was added to the culture medium. As a control, cells were transfected with plasmids lacking puromycin resistance genes (AMFT). The number of cells was determined at 1-day intervals following transfection. Cells lacking the puromycin resistance gene were killed within 2 or 3 days after the addition of puromycin, whereas cells receiving puromycin resistance genes survived as long as 7-9 days (FIG. 27). Target validation could therefore be performed on these transiently transfected cells between 2-9 days following puromycin selection. Other drugs which rapidly kill cells can also be employed in this type of experiment.

[3] = test system: 5′TK cells (HeLa with HCV IRES-tk reporter); assay: Gancyclovir sensitivity of 5′TK reporter cells, surviving colonies; design: key to number of surviving cell colonies: TMTC = too many colonies to count
Excerpt: For gene identification, this reporter is stably transfected into HeLa cells (where HCV IRES activity has already been documented using hygromycin selection (FIG. 23). This “parental” cell population is called 5′TK.
Expression of the tk gene in these cells via the IRES confers sensitivity to the toxic effects of gancyclovir. Introduction of a ribozyme that inhibits expression of a cellular factor involved in IRES translation would result in a loss of tk expression and this cell would become gancyclovir resistant (see FIG. 23). As a control, a similar reporter plasmid was constructed without the IRES (or with a non-functioning mutant IRES), to verify that tk expression is IRES-dependent. To facilitate selection of the correct ribozyme from the library, it was necessary to start with a concentration of gancyclovir that effectively kills all parental cells, thus assuring a low background of false positives. To this end, 7.5×10^5 5′TK cells were exposed to various concentrations of gancyclovir and the number of surviving cell colonies is shown below. Due to anticipated heterogeneity in the original parental population, individual cell clones of the parental were also isolated and gancyclovir sensitivity was assayed as shown below in Table 12.

[4] = test system: 2008 cell line (ovarian cell line sensitive to cisplatin); assay: Cisplatin selection of vector or library transfected cells, surviving colonies
Experimental: Approximately 2×10^7 of the 2008 cell line (ovarian cell line sensitive to cisplatin) and UMscc10b were transfected by 200 μg of pAAV6Clib described in Example 2(A) using lipofectamine. The transfection efficiencies were from 27% to 35% by eGFP expression.
After transfection, about 5.4×10^6 to 7×10^6 of cells (1.5 to 1.9 of library equivalent ) containing library DNA were selected by multiple rounds of addition of cisplatin at increasing concentrations. […] Colonies derived from the library transfected cells growing out of high concentration of cisplatin were expanded.
To confirm the library transfected cells after selection are indeed more resistant to cisplatin than either the vector transfected or parental 2008 cells, we compared the killing curve of the cisplatin of there three cell population. […] Ribozyme sequences were rescued from the library transfected cells which were selected at high concentration were rescued by PCR by the method described in Example D and identified by sequencing. After confirming the function of ribozymes rescued from the resistant cells, we will identify genes controlling cisplatin sensitivity again based on the sequence of the ribozyme binding arms and GUC by the methods described in the next example.

[5] = test system: melanoma cell line G-361; assay: TRAIL killing of G-361 cells; conditions: 200 ng/ml TRAIL; 2 days after adding; most efficient condition
Experimental: Selection of ribozymes (from the Rz library) capable of blocking TRAIL-induced apoptosis was investigated in the melanoma cell line G-361 (ATCC #CRL-1424). To determine their initial sensitivity to TRAIL, G-361 cells were plated at a density of 1×10^4 cells/cm^2. Recombinant TRAIL (Alexis Biochemicals) was applied at concentrations between 10 and 200 ng/ml for anywhere from 16 hours to 2 days.

## Serine
[1]; MOI 0.02
  % inhibition of HIV replication: 96.6%
[1]; MOI 0.04
  % inhibition of HIV replication: 91.8%
[1]; MOI 0.08
  % inhibition of HIV replication: 82.0%

## Alanine
[1]; MOI 0.02
  % inhibition of HIV replication: 75.7 ± 21%
[1]; MOI 0.04
  % inhibition of HIV replication: 71.0 ± 23%
[1]; MOI 0.08
  % inhibition of HIV replication: 8.7 ± 24%

## COc1ccc(C[C@H](N)C(=O)N[C@H]2[C@@H](O)[C@H](n3cnc4c(N(C)C)ncnc43)O[C@@H]2CO)cc1 [puromycin]
[2]
  survival time in the presence of puromycin: 7 to 9 days

## Nc1nc(O)c2ncn(COC(CO)CO)c2n1 [Gancyclovir, gancyclovir]
[3]; Clone 1, gancyclovir 20 μM
  number of surviving cell colonies: 20
[3]; Clone 1, gancyclovir 40 μM
  number of surviving cell colonies: 4
[3]; Clone 1, gancyclovir 80 μM
  number of surviving cell colonies: 0
[3]; Clone 2, gancyclovir 20 μM
  number of surviving cell colonies: 0
[3]; Clone 2, gancyclovir 40 μM
  number of surviving cell colonies: 0
[3]; Clone 2, gancyclovir 80 μM
  number of surviving cell colonies: 0
[3]; Clone 3, gancyclovir 20 μM
  number of surviving cell colonies: 0
[3]; Clone 3, gancyclovir 40 μM
  number of surviving cell colonies: 0
[3]; Clone 3, gancyclovir 80 μM
  number of surviving cell colonies: 0
[3]; Clone 4, gancyclovir 20 μM
  number of surviving cell colonies: TMTC
[3]; Clone 4, gancyclovir 40 μM
  number of surviving cell colonies: TMTC
[3]; Clone 4, gancyclovir 80 μM
  number of surviving cell colonies: 60
[3]; Clone 5, gancyclovir 20 μM
  number of surviving cell colonies: 0
[3]; Clone 5, gancyclovir 40 μM
  number of surviving cell colonies: 0
[3]; Clone 5, gancyclovir 80 μM
  number of surviving cell colonies: 0
[3]; Parental 5′TK, gancyclovir 4 μM, 7.5×10^5 cells exposed
  number of surviving cell colonies: 109
[3]; Parental 5′TK, gancyclovir 8 μM
  number of surviving cell colonies: 38
[3]; Parental 5′TK, gancyclovir 12 μM
  number of surviving cell colonies: 17
[3]; Parental 5′TK, gancyclovir 16 μM
  number of surviving cell colonies: 15
[3]; Parental 5′TK, gancyclovir 20 μM
  number of surviving cell colonies: 9
[3]; Parental 5′TK, gancyclovir 40 μM
  number of surviving cell colonies: 7
[3]; Parental 5′TK, gancyclovir 60 μM
  number of surviving cell colonies: 2
[3]; Parental 5′TK, gancyclovir 80 μM
  number of surviving cell colonies: 2
[3]; Parental 5′TK, gancyclovir 100 μM
  number of surviving cell colonies: 1
[3]; individual clones #2, 3 and 5, as low as 20 μM
  sensitivity to gancyclovir (in words): highly sensitive

## CC(C)(C)NC(=O)[C@@H]1CN(Cc2cccnc2)CCN1C[C@@H](O)C[C@@H](Cc1ccccc1)C(=O)N[C@H]1c2ccccc2C[C@H]1O [indinavir]
[1]; Human immunodeficiency virus 1, MOLT-4, Table 19, positive control at 10 nM, MOI 0.02, read-out: % inhibition of HIV replication
  inhibition at 0.01 µM: 94.7 ± 2.8%
[1]; Human immunodeficiency virus 1, MOLT-4, Table 19, positive control at 10 nM, MOI 0.04, read-out: % inhibition of HIV replication
  inhibition at 0.01 µM: 85.7 ± 4%
[1]; Human immunodeficiency virus 1, MOLT-4, Table 19, positive control at 10 nM, MOI 0.08, read-out: % inhibition of HIV replication
  inhibition at 0.01 µM: 61.6 ± 9.5%
[1]; Human immunodeficiency virus 1, MOLT-4, Table 19, positive control at 100 nM, MOI 0.02, read-out: % inhibition of HIV replication
  inhibition at 0.1 µM: 97.8 ± 1.7%
[1]; Human immunodeficiency virus 1, MOLT-4, Table 19, positive control at 100 nM, MOI 0.04, read-out: % inhibition of HIV replication
  inhibition at 0.1 µM: 95.9 ± 0.2%
[1]; Human immunodeficiency virus 1, MOLT-4, Table 19, positive control at 100 nM, MOI 0.08, read-out: % inhibition of HIV replication
  inhibition at 0.1 µM: 89.5 ± 1.2%
[1]; Human immunodeficiency virus 1, MOLT-4, Table 20, positive control at 10 nM, MOI 0.02, read-out: % inhibition (anti-HIV effect)
  inhibition at 0.01 µM: 81.3 ± 1.2%
[1]; Human immunodeficiency virus 1, MOLT-4, Table 20, positive control at 10 nM, MOI 0.04, read-out: % inhibition (anti-HIV effect)
  inhibition at 0.01 µM: 70.9 ± 2.1%
[1]; Human immunodeficiency virus 1, MOLT-4, Table 20, positive control at 10 nM, MOI 0.08, read-out: % inhibition (anti-HIV effect)
  inhibition at 0.01 µM: 57.8 ± 4.8%
[1]; Human immunodeficiency virus 1, MOLT-4, Table 20, positive control at 100 nM, MOI 0.02, read-out: % inhibition (anti-HIV effect)
  inhibition at 0.1 µM: 89.1 ± 0.5%
[1]; Human immunodeficiency virus 1, MOLT-4, Table 20, positive control at 100 nM, MOI 0.04, read-out: % inhibition (anti-HIV effect)
  inhibition at 0.1 µM: 86.1 ± 1.9%
[1]; Human immunodeficiency virus 1, MOLT-4, Table 20, positive control at 100 nM, MOI 0.08, read-out: % inhibition (anti-HIV effect)
  inhibition at 0.1 µM: 82 ± 1.2%
[1]; Human immunodeficiency virus 1, MOLT-4, Table 22, 10 nM, MOI 0.02, read-out: % inhibition
  inhibition at 0.01 µM: 74.8 ± 1.5%
[1]; Human immunodeficiency virus 1, MOLT-4, Table 22, 10 nM, MOI 0.04, read-out: % inhibition
  inhibition at 0.01 µM: 73.9 ± 3.6%
[1]; Human immunodeficiency virus 1, MOLT-4, Table 22, 10 nM, MOI 0.08, read-out: % inhibition
  inhibition at 0.01 µM: 68.8 ± 4.5%
[1]; Human immunodeficiency virus 1, MOLT-4, Table 22, 100 nM, MOI 0.02, read-out: % inhibition
  inhibition at 0.1 µM: 98.5 ± 0.5%
[1]; Human immunodeficiency virus 1, MOLT-4, Table 22, 100 nM, MOI 0.04, read-out: % inhibition
  inhibition at 0.1 µM: 95.5 ± 0.6%
[1]; Human immunodeficiency virus 1, MOLT-4, Table 22, 100 nM, MOI 0.08, read-out: % inhibition
  inhibition at 0.1 µM: 93.3 ± 0.4%

## N.N.[Cl][Pt][Cl] [cisplatin]
[4]; Library transfected cells (pAAV6Clib), cisplatin 4 uM, after multiple rounds of selection
  % of surviving colonies: 18.4%
[4]; Library transfected cells, cisplatin 5 uM
  % of surviving colonies: 10.3%
[4]; Library transfected cells, cisplatin 6 uM
  % of surviving colonies: 5.2%
[4]; Library transfected cells, cisplatin 7 uM
  % of surviving colonies: 2.3%
[4]; Library transfected cells, cisplatin 8 uM
  % of surviving colonies: 0%
[4]; vector transfected cells, cisplatin 4 uM, after multiple rounds of selection
  % of surviving colonies: 2.14%
[4]; vector transfected cells, cisplatin 5 uM
  % of surviving colonies: 0.97%
[4]; vector transfected cells, cisplatin 6 uM
  % of surviving colonies: 0.79%
[4]; vector transfected cells, cisplatin 7 uM
  % of surviving colonies: 0%
[4]; vector transfected cells, cisplatin 8 uM
  % of surviving colonies: 0%

B1: TRAIL: Recombinant TRAIL (Alexis Biochemicals), death receptor ligand (protein, UniProt P50591 1-281, looked up)
Tumor necrosis factor ligand …: MAMMEVQGGPSLGQTCVLIVIFTVLLQSLCVAVTYVYFTNELKQMQDKYSKSGIACFLKEDDSYWDPNDEESMNSPCWQVKWQLRQLVRKMILRTSEETISTVQEKQQNISPLVRERGPQRVAAHITGTRGRSNTLSSPNSKNEKALGRKINSWESSRSGHSFLSNLHLRNGELVIHEKGFYYIYSQTYFRFQEEIKENTKNDKQMVQYIYKYTSYPDPILLMKSARNSCWSKDAEYGLYSIYQGGIFELKENDRIFVSVTNEHLIDMDHEASFFGAFLVG
[5]
  killing of G-361 cells: < 100%
